# Test system: patients after acute myocardial infarction
# Experiment: Life quality, Seattle Angina Questionnaire (SAQ), same clinical trial
# Format: in vivo, human
# Settings: PP
# Description: 3508 patients who were in accordance with the diagnostic standards of AMI for 28 days to 2 years and differentiated as Qi deficiency and blood stagnation syndrome by TCM were studied. 0.5 g Chinese medicine composition prepared by the method of EXAMPLE 1 (Coded as QSYQ) was administrated half an hour after meal, 3 times per day.
# There were 19 questions in the Seattle angina questionnaire (SAQ), including 5 parts: physical limitation (PL), anginal stability (AS), anginal frequency (AF), treatment satisfaction (TS) and disease perception (DP). After being given necessary explanation by doctors, the questions were answered independently by patients.
# They included the overall survival time, angina pectoris score, TCM symptom score and life quality score, where angina pectoris score, TCM symptom score and life quality score were evaluated at randomization, in 1st, 3rd, 6th, 9th, 12th month after treatment and 18th month after follow-up.
# All evaluation results of SAQ were described during the period of observation, and Wilcoxon rank sum test was used for inter-group comparison.
# The evaluation results in the SAQ were depicted in different observations, and inter-group comparison was tested by Wilcoxon Rank-sum test.
smiles,measurement,setting,value
"CC(=O)Oc1ccccc1C(=O)O [Control group, aspirine]","9th question: Severe, patients (%)",12 months after treatment,(0.21%)
same,"9th question: Uneffective, patients (%)",12 months after treatment,(24.25%)
same,"10th question: Dissatisfied, patients (%)",12 months after treatment,(18.68%)
same,"10th question: Highly satisfied, patients (%)",12 months after treatment,(8.26%)
same,"10th question: Mostly dissatisfied, patients (%)",12 months after treatment,(18.61%)
same,"10th question: Mostly satisfied, patients (%)",12 months after treatment,(31.84%)
same,"10th question: Partly dissatisfied, patients (%)",12 months after treatment,(22.60%)
same,"11th question: Continuously worried, patients (%)",12 months after treatment,(1.96%)
same,"11th question: No worried, patients (%)",12 months after treatment,(7.42%)
same,"11th question: Occasionally worried, patients (%)",12 months after treatment,(40.59%)
same,"11th question: Often worried, patients (%)",12 months after treatment,(7.98%)
same,"11th question: Seldom worried, patients (%)",12 months after treatment,(42.06%)
same,"SAQ 4th question, 1-2 times per week: % of patients",12 months after treatment,(10.29%)
same,"SAQ 4th question, 1-2 times per week: number of patients",12 months after treatment,147
same,"SAQ 4th question, 1-3 times per week: % of patients",12 months after treatment,(3.36%)
same,"SAQ 4th question, 1-3 times per week: number of patients",12 months after treatment,48
same,"SAQ 4th question, <1 time per week: % of patients",12 months after treatment,(16.38%)
same,"SAQ 4th question, <1 time per week: number of patients",12 months after treatment,234
same,"SAQ 4th question, Not used: % of patients",12 months after treatment,(67.74%)
same,"SAQ 4th question, Not used: number of patients",12 months after treatment,968
same,"SAQ 4th question, ≧3 times per week: % of patients",12 months after treatment,(2.24%)
same,"SAQ 4th question, ≧3 times per week: number of patients",12 months after treatment,32
same,"SAQ 4th question, ≧4 times per day: % of patients",12 months after treatment,(0.00%)
same,"SAQ 4th question, ≧4 times per day: number of patients",12 months after treatment,0
same,"SAQ 5th question, 1-2 times per week: % of patients",12 months after treatment,(34.01%)
same,"SAQ 5th question, 1-2 times per week: number of patients",12 months after treatment,486
same,"SAQ 5th question, 1-3 times per day: % of patients",12 months after treatment,(4.13%)
same,"SAQ 5th question, 1-3 times per day: number of patients",12 months after treatment,59
same,"SAQ 5th question, <1 time per week: % of patients",12 months after treatment,(30.58%)
same,"SAQ 5th question, <1 time per week: number of patients",12 months after treatment,437
same,"SAQ 5th question, No onset: % of patients",12 months after treatment,(5.67%)
same,"SAQ 5th question, No onset: number of patients",12 months after treatment,81
same,"SAQ 5th question, ≧3 times per week: % of patients",12 months after treatment,(25.33%)
same,"SAQ 5th question, ≧3 times per week: number of patients",12 months after treatment,362
same,"SAQ 5th question, ≧4 times per day: % of patients",12 months after treatment,(0.28%)
same,"SAQ 5th question, ≧4 times per day: number of patients",12 months after treatment,4
same,"SAQ 6th question, Dissatisfied: % of patients",12 months after treatment,(0.07%)
same,"SAQ 6th question, Dissatisfied: number of patients",12 months after treatment,1
same,"SAQ 6th question, Highly satisfied: % of patients",12 months after treatment,(27.78%)
same,"SAQ 6th question, Highly satisfied: number of patients",12 months after treatment,397
same,"SAQ 6th question, Mostly dissatisfied: % of patients",12 months after treatment,(0.84%)
same,"SAQ 6th question, Mostly dissatisfied: number of patients",12 months after treatment,12
same,"SAQ 6th question, Mostly satisfied: % of patients",12 months after treatment,(61.72%)
same,"SAQ 6th question, Mostly satisfied: number of patients",12 months after treatment,882
same,"SAQ 6th question, Partly satisfied: % of patients",12 months after treatment,(9.59%)
same,"SAQ 6th question, Partly satisfied: number of patients",12 months after treatment,137
same,"SAQ 7th question, Dissatisfied: % of patients",12 months after treatment,(0.07%)
same,"SAQ 7th question, Dissatisfied: number of patients",12 months after treatment,1
same,"SAQ 7th question, Highly satisfied: % of patients",12 months after treatment,(31.25%)
same,"SAQ 7th question, Highly satisfied: number of patients",12 months after treatment,446
same,"SAQ 7th question, Mostly dissatisfied: % of patients",12 months after treatment,(0.28%)
same,"SAQ 7th question, Mostly dissatisfied: number of patients",12 months after treatment,4
same,"SAQ 7th question, Mostly satisfied: % of patients",12 months after treatment,(60.34%)
same,"SAQ 7th question, Mostly satisfied: number of patients",12 months after treatment,861
same,"SAQ 7th question, Partly satisfied: % of patients",12 months after treatment,(8.06%)
same,"SAQ 7th question, Partly satisfied: number of patients",12 months after treatment,115
same,"SAQ Question 1-1 Mildly limited, number of patients",12 months after treatment,7
same,"SAQ Question 1-1 Mildly limited, percent of patients",12 months after treatment,(0.49%)
same,"SAQ Question 1-1 Moderately limited, number of patients",12 months after treatment,1
same,"SAQ Question 1-1 Moderately limited, percent of patients",12 months after treatment,(0.07%)
same,"SAQ Question 1-1 Not limited, number of patients",12 months after treatment,1371
same,"SAQ Question 1-1 Not limited, percent of patients",12 months after treatment,(96.28%)
same,"SAQ Question 1-1 Other reasons, number of patients",12 months after treatment,4
same,"SAQ Question 1-1 Other reasons, percent of patients",12 months after treatment,(0.28%)
same,"SAQ Question 1-1 Severely limited, number of patients",12 months after treatment,0
same,"SAQ Question 1-1 Severely limited, percent of patients",12 months after treatment,(0.00%)
same,"SAQ Question 1-1 Slightly limited, number of patients",12 months after treatment,41
same,"SAQ Question 1-1 Slightly limited, percent of patients",12 months after treatment,(2.88%)
same,"SAQ Question 1-2 Mildly limited, number of patients",12 months after treatment,8
same,"SAQ Question 1-2 Mildly limited, percent of patients",12 months after treatment,(0.56%)
same,"SAQ Question 1-2 Moderately limited, number of patients",12 months after treatment,1
same,"SAQ Question 1-2 Moderately limited, percent of patients",12 months after treatment,(0.07%)
same,"SAQ Question 1-2 Not limited, number of patients",12 months after treatment,1365
same,"SAQ Question 1-2 Not limited, percent of patients",12 months after treatment,(95.79%)
same,"SAQ Question 1-2 Other reasons, number of patients",12 months after treatment,6
same,"SAQ Question 1-2 Other reasons, percent of patients",12 months after treatment,(0.42%)
same,"SAQ Question 1-2 Severely limited, number of patients",12 months after treatment,0
same,"SAQ Question 1-2 Severely limited, percent of patients",12 months after treatment,(0.00%)
same,"SAQ Question 1-2 Slightly limited, number of patients",12 months after treatment,45
same,"SAQ Question 1-2 Slightly limited, percent of patients",12 months after treatment,(3.16%)
same,"SAQ Question 1-6: Mildly limited, patients (%)",12 months after treatment,(13.45%)
same,"SAQ Question 1-6: Moderately limited, patients (%)",12 months after treatment,(9.58%)
same,"SAQ Question 1-6: Not limited, patients (%)",12 months after treatment,(42.39%)
same,"SAQ Question 1-6: Other reasons, patients (%)",12 months after treatment,(0.92%)
same,"SAQ Question 1-6: Severely limited, patients (%)",12 months after treatment,(1.76%)
same,"SAQ Question 1-6: Slightly limited, patients (%)",12 months after treatment,(31.90%)
same,"SAQ Question 1-7: Mildly limited, patients (%)",12 months after treatment,(20.24%)
same,"SAQ Question 1-7: Moderately limited, patients (%)",12 months after treatment,(9.84%)
same,"SAQ Question 1-7: Not limited, patients (%)",12 months after treatment,(21.81%)
same,"SAQ Question 1-7: Other limited, patients (%)",12 months after treatment,(3.56%)
same,"SAQ Question 1-7: Severely limited, patients (%)",12 months after treatment,(12.05%)
same,"SAQ Question 1-7: Slightly limited, patients (%)",12 months after treatment,(32.50%)
same,"SAQ Question 1-8: Mildly limited, patients (%)",12 months after treatment,(24.98%)
same,"SAQ Question 1-8: Moderately limited, patients (%)",12 months after treatment,(12.17%)
same,"SAQ Question 1-8: Not limited, patients (%)",12 months after treatment,(14.53%)
same,"SAQ Question 1-8: Other reasons, patients (%)",12 months after treatment,(4.22%)
same,"SAQ Question 1-8: Severely limited, patients (%)",12 months after treatment,(15.68%)
same,"SAQ Question 1-8: Slightly limited, patients (%)",12 months after treatment,(28.42%)
same,"8th question: Dissatisfied, patients (%)",Baseline,(0.87%)
same,"8th question: Highly satisfied, patients (%)",Baseline,(14.83%)
same,"8th question: Mostly dissatisfied, patients (%)",Baseline,(6.61%)
same,"8th question: Mostly satisfied, patients (%)",Baseline,(45.16%)
same,"8th question: Partly satisfied, patients (%)",Baseline,(32.53%)
same,"9th question: Few, patients (%)",Baseline,(20.91%)
same,"9th question: Mild, patients (%)",Baseline,(37.01%)
same,"9th question: Moderate, patients (%)",Baseline,(26.99%)
same,"9th question: Severe, patients (%)",Baseline,(3.34%)
same,"9th question: Uneffective, patients (%)",Baseline,(11.76%)
same,"10th question: Dissatisfied, patients (%)",Baseline,(25.25%)
same,"10th question: Highly satisfied, patients (%)",Baseline,(2.07%)
same,"10th question: Mostly dissatisfied, patients (%)",Baseline,(24.11%)
same,"10th question: Mostly satisfied, patients (%)",Baseline,(16.30%)
same,"10th question: Partly satisfied, patients (%)",Baseline,(32.26%)
same,"11th question: Continuously worried, patients (%)",Baseline,(9.21%)
same,"11th question: No worried, patients (%)",Baseline,(3.94%)
same,"11th question: Occasionally worried, patients (%)",Baseline,(41.32%)
same,"11th question: Often worried, patients (%)",Baseline,(25.10%)
same,"11th question: Seldom worried, patients (%)",Baseline,(20.43%)
same,"SAQ 4th question, 1-2 times per week: % of patients",Baseline,(20.17%)
same,"SAQ 4th question, 1-2 times per week: number of patients",Baseline,301
same,"SAQ 4th question, 1-3 times per day: % of patients",Baseline,(8.78%)
same,"SAQ 4th question, 1-3 times per day: number of patients",Baseline,131
same,"SAQ 4th question, <1 time per week: % of patients",Baseline,(9.52%)
same,"SAQ 4th question, <1 time per week: number of patients",Baseline,142
same,"SAQ 4th question, Not used: % of patients",Baseline,(43.16%)
same,"SAQ 4th question, Not used: number of patients",Baseline,644
same,"SAQ 4th question, ≧3 times per week: % of patients",Baseline,(17.43%)
same,"SAQ 4th question, ≧3 times per week: number of patients",Baseline,260
same,"SAQ 4th question, ≧4 times per day: % of patients",Baseline,(0.94%)
same,"SAQ 4th question, ≧4 times per day: number of patients",Baseline,14
same,"SAQ 5th question, Few: % of patients",Baseline,(19.21%)
same,"SAQ 5th question, Few: number of patients",Baseline,287
same,"SAQ 5th question, Mild: % of patients",Baseline,(31.26%)
same,"SAQ 5th question, Mild: number of patients",Baseline,467
same,"SAQ 5th question, Moderate: % of patients",Baseline,(21.29%)
same,"SAQ 5th question, Moderate: number of patients",Baseline,318
same,"SAQ 5th question, None: % of patients",Baseline,(22.02%)
same,"SAQ 5th question, None: number of patients",Baseline,329
same,"SAQ 5th question, Not medicated by doctors: % of patients",Baseline,(3.01%)
same,"SAQ 5th question, Not medicated by doctors: number of patients",Baseline,45
same,"SAQ 5th question, Severe: % of patients",Baseline,(3.21%)
same,"SAQ 5th question, Severe: number of patients",Baseline,48
same,"SAQ 6th question, Dissatisfied: % of patients",Baseline,(1.14%)
same,"SAQ 6th question, Dissatisfied: number of patients",Baseline,17
same,"SAQ 6th question, Highly satisfied: % of patients",Baseline,(14.90%)
same,"SAQ 6th question, Highly satisfied: number of patients",Baseline,223
same,"SAQ 6th question, Mostly dissatisfied: % of patients",Baseline,(6.48%)
same,"SAQ 6th question, Mostly dissatisfied: number of patients",Baseline,97
same,"SAQ 6th question, Mostly satisfied: % of patients",Baseline,(44.29%)
same,"SAQ 6th question, Mostly satisfied: number of patients",Baseline,663
same,"SAQ 6th question, Partly satisfied: % of patients",Baseline,(33.20%)
same,"SAQ 6th question, Partly satisfied: number of patients",Baseline,497
same,"SAQ 7th question, Dissatisfied: % of patients",Baseline,(0.33%)
same,"SAQ 7th question, Dissatisfied: number of patients",Baseline,5
